{"source": "patent US7161064B2", "about": "“Method for producing stably transformed duckweed using microprojectile bombardment” (North Carolina State University, priority 1997, dated 2007)", "assay_type_in_all_cases": "cell-based", "key": {"Lemna gibba G3": {"system": "Lemna gibba G3", "assay": "Callus induction from Lemna gibba G3 fronds on solid medium with plant growth regulators", "protocol": "Duckweed fronds were grown in liquid Hoagland's medium (Hoagland and Snyder, Proc. Amer. Soc. Hort. Sci. 30, 288 (1933)) containing 3% sucrose for two weeks at 23° C. under a 16 hr light/8 hr dark photoperiod with light intensity of approximately 40 μmol/m^2·sec prior to experimentation. For callus induction, eighteen, 100 ml portions of Murashige and Skoog basal medium (Murashige and Skoog, Physiol. Plant. 15, 473 (1962)) containing 3% sucrose, 0.15% Gelrite and 0.4% Difco Bacto-agar were prepared with 2,4-D concentrations of 10, 20 and 50 μM and BA concentrations of 0, 0.01, 0.1, 1.0, 2.0, and 10.0 μM. All media were pH adjusted to 5.8, autoclaved at 121° C. for 20 minutes, cooled, and each 100 ml was poured into 4, 100 mm×15 mm petri dishes.\n(§1) A three 2,4-D concentrations×six BA concentrations, full-factorial experimental design (18 treatments in total) with four replications, with one petri dish per replication and 5 fronds per petri dish was used. For callus induction, 5 individual duckweed fronds were placed abaxial side down on each plate of medium. The 72 plates were incubated at 23° C., for 27 days under a 16 hr light/8 hr dark photoperiod with light intensity of approximately 40 μmol/m^2·sec. After 27 days the duckweed tissue was transferred to fresh media of the same type and incubation was continued another 35 days under the same temperature and light culturing conditions.\nDuckweed fronds were grown in liquid Hoagland's medium containing 3% sucrose for two weeks at 23° C. under a 16 hr light/8 hr dark photoperiod with light intensity of approximately 40 μmol/m^2·sec. prior to experimentation. For callus induction, forty 100 ml portions of Murashige and Skoog medium with 3% sucrose, 0.15% Gelrite, and 0.4% Difco Bacto-agar were prepared with dicamba concentrations of 10, 20, 30, 40, 50, 60, 80, 100 μM and BA concentrations of 0.01, 0.05, 0.1, 0.5, and 1.0 μM. All media were pH adjusted to 5.8, autoclaved at 121° C. for 20 minutes, cooled, and each 100 ml was poured into 4, 100 mm×15 mm petri dishes.\nas §1, with “An eight dicamba concentrations×five BA” for “A three 2,4-D concentrations×six BA”, “design (40” for “design (18”, “The” for “The 72”, “After 28” for “After 27”, “another 45” for “another 35”\nDuckweed fronds were grown in liquid Schenk and Hildebrandt medium containing 1% sucrose for two weeks at 23° C. under a 16 hr light/8 hr dark photoperiod with light intensity of approximately 40 μmol/m^2·sec prior to experimentation. For callus induction, three basal media were tested: Murashige and Skoog, Schenk and Hildebrandt, and N6. Benzyladenine was used as the cytokinin at a concentration of 1 μM. The auxin concentrations varied with auxin type. For the relatively strong auxins, 2,4-D and dicamba, concentrations were 0, 1, 5, 10 and 20 μM. For weak auxins, NAA and IBA, the concentrations were 0, 5, 10, 20 and 50 μM. For each medium dose-response experiment, 2 liters of basal medium were prepared with BA and the pH adjusted to 5.8. The volume was aliquoted as 20, 100 ml portions. To each of these portions, the appropriate amount of auxin was added and the medium was adjusted to 0.15% Gelrite, and 0.4% Difco Bacto-agar. The media were autoclaved for 30 minutes at 121° C., cooled and 4, 100 mm×15 mm petri dishes were poured from each 100 ml portion.\nA 3 media×4 auxin×5 concentration combinations, 60 treatment, randomized dose-response experimental design was used. The design was replicated two times, with one petri dish per replication and 5 fronds per petri dish."}, "Spirodela species": {"system": "Spirodela species", "assay": "Callus induction screen across Lemnaceae strains, frond health", "conditions": "4-5 weeks", "protocol": "Duckweed fronds were grown in liquid Schenk and Hildebrandt medium containing 1% sucrose for two weeks at 23° C. under a 16 hr light/8 hr dark photoperiod with light intensity of approximately 40 μmol/m^2·sec prior to experimentation. For callus induction, six basal media were used: Murashige and Skoog, Schenk and Hildebrand (Schenk and Hildebrandt, Can. J. Bot. 50, 199 (1972)), Nitsch and Nitsch, N6 (Chu et al., Scientia Sinica 18, 659 (1975)), Gamborg's B5, and Hoagland's. The two plant growth regulator combinations known to elicit callus proliferation in L. gibba G3 were used: 30 μM 2,4-D and 0.02 μM BA, and 5 μM 2,4-D and 2 μM BA. For each strain, 200 ml of each basal medium was prepared with 3% sucrose, 0.15% Gelrite, and 0.4% Difco Bacto-agar. The 200 ml was divided into 2, 100 ml portions, each to be used to prepare the two plant growth regulator concentrations. The pH of all media was adjusted to 5.8, the media were autoclaved for 30 minutes at 121° C., cooled and 4, 100 mm×15 mm petri dishes were poured from each 100 ml portion.\nA 6 media×2 plant growth regulator combinations, 12 treatment, random block experimental design was used for each duckweed strain tested. […] At this time the fronds were evaluated for general health (judged by color: green to yellow, and vigor of proliferation) and the frequency of callus initiation of the three types: Type I, Type II, and Type III."}, "[1]": {"system": "L. minor strains 8744 and 8627", "assay": "Callus induction from Lemna minor fronds, auxin and cytokinin type and concentration", "conditions": "MS medium, 6 weeks", "protocol": "In the auxin type and concentration experiment, four auxins: 2,4-D, NAA, IBA and dicamba were tested, each at four concentrations: 2, 5, 10 and 20 μM, for their ability to induce callus formation from L. minor strains 8744 and 8627. The basal medium used was MS and media and experimental protocol was basically that followed in Example 10. Fronds used in this experiment were grown for 2 weeks prior to plating on callus induction medium under 3 different culture conditions: 1) SH medium without plant growth regulators, 2) F medium with 24 μM 2,4-D and 2 μM 2-iP, and 3) SH medium with 24 μM 2,4-D and 2 μM 2-iP. Fronds were separated, the roots cut off and then plated on induction medium. The fronds were incubated under conditions given in Example 8 for 6 weeks at which time cultures were evaluated for the presence or absence of callus induction, the degree to which the callus proliferated, and the basic morphology of the callus present.\nIn the cytokinin type and concentration experiment, four cytokinins: BA, kinetin, 2-iP, and thidiazuron were tested, each at five concentrations: 0.05, 0.1, 0.5, 1 and 5 μM, for their ability to induce callus formation from L. minor strains 8744 and 8627. The basal medium used was MS and the media and experimental protocol were basically as described in Example 11. Fronds used in this experiment were grown for 2 weeks prior to plating on callus induction medium under 3 different culture conditions: 1) SH medium without plant growth regulators, 2) F medium with 24 μM 2,4-D and 2 μM 2-iP, and 3) SH medium with 24 μM 2,4-D and 2 μM 2-iP. Fronds were separated, the roots cut off and then plated on induction medium. The fronds were incubated under conditions given in Example 8 for 6 weeks at which time cultures were evaluated for the presence or absence of callus induction, the degree to which the callus proliferated, and the basic morphology of the callus."}}, "data": [{"smiles": "O=C(O)COc1ccc(Cl)cc1Cl", "note": "[2,4-D, 2,4-dichlorophenoxyacetic acid]", "values": [{"measurement": "concentrations at which callus proliferation was the most vigorous", "setting": "Lemna gibba G3; 2,4-D x BA factorial, Murashige and Skoog medium, 62 days", "result": "20 to 50", "unit": "µM"}, {"measurement": "compact Type I callus induction on MS medium", "setting": "Lemna gibba G3; auxin with 1 μM BA, five weeks", "result": "some degree of callus induction"}, {"measurement": "compact Type I callus induction on N6 medium", "setting": "Lemna gibba G3; auxin with 1 μM BA, five weeks", "result": "produced callus"}, {"measurement": "frond survival", "setting": "Spirodela species; higher concentration of 2,4-D (30 μM with 0.02 μM BA)", "result": "did not survive"}, {"measurement": "frond growth", "setting": "Spirodela species; lower concentration of 2,4-D (5 μM with 2 μM BA)", "result": "did not grow well"}, {"measurement": "concentration giving the best callus induction", "setting": "[1]; strain 8627, auxin experiment", "result": 5, "unit": "µM"}, {"measurement": "concentration giving the best callus induction", "setting": "[1]; strain 8744, auxin experiment", "result": 5, "unit": "µM"}]}]}
